In PubChem BioAssay AID1963969 (Molecular Pharmacology Branch, DTP, NCI, 2024):

System: 817829-284-R-J1-PDC multi-cell spheroid viability
Experiment: Anticancer human tumor 817829-284-R-J1-PDC patient-derived colon adenocarcinoma cell line growth inhibition [PI3K]
Details: for IC50: curve of first compound; for viability, T/C: stronger effect = lower value
Outline: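 Multi-cell spheroids combine tumor cells with HUVEC and human MSCs, treated with targeted agents alone or with inavolisib, alpelisib, duvelisib or copanlisib. Concentrations fall in half-log steps from at or near clinical Cmax, or from 10 microM where Cmax is unknown; viability read-out.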

[1] = second compound 0.0316 µM, first compound 0.0316 µM
[2] = second compound 0.0316 µM, first compound 0.1 µM
[3] = second compound 0.0316 µM, first compound 0.316 µM
[4] = second compound 0.0316 µM, first compound 1 µM
[5] = second compound 0.0316 µM, first compound 3.16 µM
[6] = second compound 0.0316 µM, first compound 10 µM
[7] = second compound 0.1 µM, first compound 0.0316 µM
[8] = second compound 0.1 µM, first compound 0.1 µM
[9] = second compound 0.1 µM, first compound 0.316 µM
[10] = second compound 0.1 µM, first compound 1 µM
[11] = second compound 0.1 µM, first compound 3.16 µM
[12] = second compound 0.1 µM, first compound 10 µM
[13] = second compound 0.316 µM, first compound 0.0316 µM
[14] = second compound 0.316 µM, first compound 0.1 µM
[15] = second compound 0.316 µM, first compound 0.316 µM
[16] = second compound 0.316 µM, first compound 1 µM
[17] = second compound 0.316 µM, first compound 3.16 µM
[18] = second compound 0.316 µM, first compound 10 µM
[19] = second compound 1 µM, first compound 0.0316 µM
[20] = second compound 1 µM, first compound 0.1 µM
[21] = second compound 1 µM, first compound 0.316 µM
[22] = second compound 1 µM, first compound 1 µM
[23] = second compound 1 µM, first compound 3.16 µM
[24] = second compound 1 µM, first compound 10 µM
[25] = second compound 3.16 µM, first compound 0.0316 µM
[26] = second compound 3.16 µM, first compound 0.1 µM
[27] = second compound 3.16 µM, first compound 0.316 µM
[28] = second compound 3.16 µM, first compound 1 µM
[29] = second compound 3.16 µM, first compound 3.16 µM
[30] = second compound 3.16 µM, first compound 10 µM
[31] = second compound 10 µM, first compound 0.0316 µM
[32] = second compound 10 µM, first compound 0.1 µM
[33] = second compound 10 µM, first compound 0.316 µM
[34] = second compound 10 µM, first compound 1 µM
[35] = second compound 10 µM, first compound 3.16 µM
[36] = second compound 10 µM, first compound 10 µM
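Further: spheroids exposed to agents for seven days before readout.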
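Wherever viability, T/C is given: percent of vehicle DMSO control viability which is 100%.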

SMILES: C=CC(=O)N1CCN(c2nc(=O)n(-c3c(C)ccnc3C(C)C)c3nc(-c4c(O)cccc4F)c(F)cc23)C(C)C1 (centres undefined) + Cc1nc(NC(=O)N2CCCC2C(N)=O)sc1-c1ccnc(C(C)(C)C(F)(F)F)c1
- IC50 (second compound 0.0316 µM): > 10 µM
- IC50 (second compound 0.1 µM): 5.98 µM
- IC50 (second compound 0.316 µM): 6.17 µM
- IC50 (second compound 1 µM): 6.27 µM
- IC50 (second compound 3.16 µM): > 10 µM
- IC50 (second compound 10 µM): 0.0565 µM
- viability, T/C [1]: 75.1%
- viability, T/C [2]: 75.8%
- viability, T/C [3]: 114%
- viability, T/C [4]: 77%
- viability, T/C [5]: 91%
- viability, T/C [6]: 54.7%
- viability, T/C [7]: 68.7%
- viability, T/C [8]: 70.2%
- viability, T/C [9]: 68.1%
- viability, T/C [10]: 53.5%
- viability, T/C [11]: 91.9%
- viability, T/C [12]: 33.6%
- viability, T/C [13]: 80.1%
- viability, T/C [14]: 63.8%
- viability, T/C [15]: 95.7%
- viability, T/C [16]: 55.7%
- viability, T/C [17]: 66%
- viability, T/C [18]: 41.2%
- viability, T/C [19]: 81.5%
- viability, T/C [20]: 65.3%
- viability, T/C [21]: 84.3%
- viability, T/C [22]: 63.1%
- viability, T/C [23]: 92.3%
- viability, T/C [24]: 31.4%
- viability, T/C [25]: 71.2%
- viability, T/C [26]: 61.8%
- viability, T/C [27]: 55.3%
- viability, T/C [28]: 75.8%
- viability, T/C [29]: 85.2%
- viability, T/C [30]: 50.9%
- viability, T/C [31]: 51.5%
- viability, T/C [32]: 49.2%
- viability, T/C [33]: 40.8%
- viability, T/C [34]: 51.6%
- viability, T/C [35]: 51.1%
- viability, T/C [36]: 37.4%

SMILES: Cn1nccc1Nc1nccc(-c2ccn(C(CO)c3ccc(Cl)c(F)c3)c(=O)c2)n1 (centres undefined) + Cc1nc(NC(=O)N2CCCC2C(N)=O)sc1-c1ccnc(C(C)(C)C(F)(F)F)c1
- IC50 (second compound 0.0316 µM): 7.87 µM
- IC50 (second compound 0.1 µM): 4.8 µM
- IC50 (second compound 0.316 µM): 6.44 µM
- IC50 (second compound 1 µM): 4.65 µM
- IC50 (second compound 3.16 µM): 4.88 µM
- IC50 (second compound 10 µM): 4.81 µM
- viability, T/C [1]: 83%
- viability, T/C [2]: 66.9%
- viability, T/C [3]: 92.2%
- viability, T/C [4]: 90.7%
- viability, T/C [5]: 81.6%
- viability, T/C [6]: 41.6%
- viability, T/C [7]: 79.8%
- viability, T/C [8]: 77.3%
- viability, T/C [9]: 76.3%
- viability, T/C [10]: 75.3%
- viability, T/C [11]: 63.2%
- viability, T/C [12]: 26.6%
- viability, T/C [13]: 87.8%
- viability, T/C [14]: 99.5%
- viability, T/C [15]: 72%
- viability, T/C [16]: 74.6%
- viability, T/C [17]: 81.6%
- viability, T/C [18]: 30.6%
- viability, T/C [19]: 68.6%
- viability, T/C [20]: 69%
- viability, T/C [21]: 62.1%
- viability, T/C [22]: 107%
- viability, T/C [23]: 60.9%
- viability, T/C [24]: 28.5%
- viability, T/C [25]: 54.2%
- viability, T/C [26]: 102%
- viability, T/C [27]: 86.1%
- viability, T/C [28]: 87.3%
- viability, T/C [29]: 67.3%
- viability, T/C [30]: 21.6%
- viability, T/C [31]: 109%
- viability, T/C [32]: 103%
- viability, T/C [33]: 101%
- viability, T/C [34]: 94.2%
- viability, T/C [35]: 69%
- viability, T/C [36]: 16.4%
